Tests used:
PKS (ca_c3355) [1] = molecular target: T1, PKS (ca_c3355) (Clostridium acetobutylicum, UniProt Q97DW5); experiment: in vitro product assay by LC-MS; format: biochemical; details: 100 mM phosphate pH 7.0, 2 mM malonyl-CoA, 2 mM NADPH, 8 uM PKS, room temperature, 2 h; KR domain reductant
PKS (ca_c3355) [2] = molecular target: T1, PKS (ca_c3355); experiment: in vitro product assay by LC-MS; […] acyl loading by SDS-PAGE autoradiography; format: biochemical; details: 100 mM phosphate pH 7.0, 2 mM malonyl-CoA, 8 uM PKS, room temperature, 2 h; covalent acyl-S-enzyme intermediate seen with labelled compound (made in situ by MatB, pH 8.0, 25 °C)

T1 sequence (Q97DW5 1-1795): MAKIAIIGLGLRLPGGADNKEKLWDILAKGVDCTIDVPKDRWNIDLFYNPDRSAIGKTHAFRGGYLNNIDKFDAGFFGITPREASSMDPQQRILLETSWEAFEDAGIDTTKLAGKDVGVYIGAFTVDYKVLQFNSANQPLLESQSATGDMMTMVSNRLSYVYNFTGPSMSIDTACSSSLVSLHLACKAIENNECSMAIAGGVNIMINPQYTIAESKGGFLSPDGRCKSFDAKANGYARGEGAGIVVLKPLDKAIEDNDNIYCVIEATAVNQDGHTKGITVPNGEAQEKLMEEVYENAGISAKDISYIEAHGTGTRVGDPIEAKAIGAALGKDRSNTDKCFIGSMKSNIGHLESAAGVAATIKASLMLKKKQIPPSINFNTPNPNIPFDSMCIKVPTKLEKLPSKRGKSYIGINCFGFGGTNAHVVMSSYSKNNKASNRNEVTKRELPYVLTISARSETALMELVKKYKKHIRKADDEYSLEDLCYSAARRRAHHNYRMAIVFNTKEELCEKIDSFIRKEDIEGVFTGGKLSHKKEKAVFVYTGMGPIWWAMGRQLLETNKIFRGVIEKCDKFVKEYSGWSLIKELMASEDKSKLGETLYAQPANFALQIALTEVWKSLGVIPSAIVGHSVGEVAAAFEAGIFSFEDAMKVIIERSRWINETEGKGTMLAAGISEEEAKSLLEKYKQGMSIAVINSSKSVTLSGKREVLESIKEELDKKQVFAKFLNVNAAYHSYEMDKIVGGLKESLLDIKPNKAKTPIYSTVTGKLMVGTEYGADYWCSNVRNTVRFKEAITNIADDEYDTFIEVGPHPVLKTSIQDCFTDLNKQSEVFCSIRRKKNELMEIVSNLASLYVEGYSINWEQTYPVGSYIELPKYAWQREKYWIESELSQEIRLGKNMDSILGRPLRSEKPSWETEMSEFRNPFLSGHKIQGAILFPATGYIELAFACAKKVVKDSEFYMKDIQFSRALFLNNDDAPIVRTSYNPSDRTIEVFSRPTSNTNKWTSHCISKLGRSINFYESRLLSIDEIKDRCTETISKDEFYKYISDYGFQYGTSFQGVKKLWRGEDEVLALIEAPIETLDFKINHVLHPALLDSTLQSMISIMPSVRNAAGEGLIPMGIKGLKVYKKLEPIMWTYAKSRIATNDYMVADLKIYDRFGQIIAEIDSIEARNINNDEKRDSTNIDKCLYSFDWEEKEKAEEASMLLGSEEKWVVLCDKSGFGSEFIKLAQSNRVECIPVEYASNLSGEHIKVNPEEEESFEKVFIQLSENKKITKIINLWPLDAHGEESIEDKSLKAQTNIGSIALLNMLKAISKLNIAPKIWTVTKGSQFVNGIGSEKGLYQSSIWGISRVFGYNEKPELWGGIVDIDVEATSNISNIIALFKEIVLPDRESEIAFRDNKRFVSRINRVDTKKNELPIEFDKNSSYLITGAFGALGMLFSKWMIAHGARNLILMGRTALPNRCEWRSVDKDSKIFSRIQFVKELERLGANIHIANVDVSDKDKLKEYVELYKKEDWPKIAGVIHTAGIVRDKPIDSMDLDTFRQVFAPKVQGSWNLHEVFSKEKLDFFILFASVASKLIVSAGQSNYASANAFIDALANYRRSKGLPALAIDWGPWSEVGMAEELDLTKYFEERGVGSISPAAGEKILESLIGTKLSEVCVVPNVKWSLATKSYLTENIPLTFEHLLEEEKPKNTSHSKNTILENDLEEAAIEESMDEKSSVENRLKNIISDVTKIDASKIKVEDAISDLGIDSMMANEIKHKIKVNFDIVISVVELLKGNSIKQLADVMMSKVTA

Compound | in vitro product assay by LC-MS (PKS (ca_c3355) [1]) | in vitro product assay by LC-MS; 14C acyl loading by SDS-PAGE autoradiography (PKS (ca_c3355) [2])
NC(=O)C1=CN([C@@H]2O[C@H](COP(=O)(O)OP(=O)(O)OC[C@H]3O[C@@H](n4cnc5c(N)ncnc54)[C@H](OP(=O)(O)O)[C@@H]3O)[C@@H](O)[C@H]2O)C=CC1 [NADPH] | Addition of NADPH to this reaction enabled function of the KR domain | 
CC(C)(COP(=O)(O)OP(=O)(O)OC[C@H]1O[C@@H](n2cnc3c(N)ncnc32)[C@H](O)[C@@H]1OP(=O)(O)O)[C@@H](O)C(=O)NCCC(=O)NCCSC(=O)CC(=O)O [malonyl-CoA] |  | in vitro reconstitution of the activity of PKS with malonyl-CoA showed a dominant product

Source: PMC5686105, “The industrial anaerobe Clostridium acetobutylicum uses polyketides to regulate cellular differentiation” (Nature Communications, 2017)
